Assay results from patent US10954258B2, “STAT3 dimerization inhibitors” (H. LEE MOFFITT CANCER CENTER AND RESEARCH INSTITUTE, INC., priority 2012, dated 2021).

How the values were obtained:
Type in all cases: cell-based, human
[1] = target: binding of FLAG-STAT3 to HA-STAT3 (Mus musculus, UniProt P42227); experiment: co-immunoprecipitation of FLAG-STAT3 with HA-STAT3 in HEK293 cells; conditions: HEK293 cells co-expressing FLAG- and HA-STAT3; treated 4 h
Procedure: HEK-293/FLAG-STAT3/HA-STAT3 cells were treated for 4 h with vehicle, S3I-1757, S3I-1756, Ac-G{pTYR}LPQTV-[…]-NH2 (SEQ ID NO:3) or Ac-GYLPQTV-[…]-NH2 (SEQ ID NO:4) and then lysed in 20 mM Tris-HCl (pH 7.4), 5 mM EDTA, 10 mM Na4P2O7, 100 mM NaF, 2 mM Na3VO4, 1% NP-40.1 mM PMSF and 10 mg/ml aprotinin. For EGF stimulation group, HEK-293/FLAG-STAT3/HASTAT3 cells were treated by 100 ng/ml EGF for 30 minutes before making cell lysate. Protein A or G agarose (EMD Millipore, Billerica, Mass., USA) was washed twice with PBS and restore to 50% slurry with PBS. 500 μg of lysate were pre-cleared by mixture of protein A and protein G-agarose for 1 h at 4° C. and then remove protein A and G-agarose by centrifuge at 1300 rpm for 3 minutes. And then 500 μg of lysate was immunoprecipitated with 50 ng of HA antibody overnight at 4° C. on shaker and then capture the immunocomplex by adding 100 μl Protein A and G agarose/sepharose bead slurry for 1 hour at 4° C. Samples were washed five times with lysis buffer and then boiled in 5×SDS-PAGE sample buffer and run on SDS-PAGE gel. Protein was transferred to nitrocellulose membrane and then blotted as described above for HA, FLAG, pSTAT3, EGFR, and STAT3.
However, the FP assay only measured the ability of S3I-1757 to displace the 7 amino acid fluorescein-labelled GpYLPQTV phosphotyrosine peptide from the SH2 domain of STAT3 protein in vitro. Therefore, it was determined if the intracellular reciprocal binding of 2 full-length STAT3 proteins is inhibited. To this end, an assay was developed to measure directly STAT3-STAT3 dimerization in intact cells by cloning HA-tagged STAT3 and FLAG-tagged STAT3, generating HEK293 cells that stably co-express HA-STAT3 and FLAG-STAT3 and using these cells for coimmunoprecipitation and co-localization. […] This assay was validated by treating the FLAG-STAT3/HA-STAT3 HEK293 cells with tyrosine phosphorylated or nonphosphorylated GYLPQTV peptide fused to a membrane-translocating sequence (MTS) to allow cell uptake. […]

[2] = target: dimerization of FLAG-STAT3 and HA-STAT3 (Mus musculus, UniProt P42227); experiment: co-localization of FLAG-STAT3 and HA-STAT3 by immunofluorescence; conditions: HEK293 cells; 1, 2 or 4 hours
Chain of dimerization of FLAG-STAT3 and HA-STAT3 (P42227 whole entry): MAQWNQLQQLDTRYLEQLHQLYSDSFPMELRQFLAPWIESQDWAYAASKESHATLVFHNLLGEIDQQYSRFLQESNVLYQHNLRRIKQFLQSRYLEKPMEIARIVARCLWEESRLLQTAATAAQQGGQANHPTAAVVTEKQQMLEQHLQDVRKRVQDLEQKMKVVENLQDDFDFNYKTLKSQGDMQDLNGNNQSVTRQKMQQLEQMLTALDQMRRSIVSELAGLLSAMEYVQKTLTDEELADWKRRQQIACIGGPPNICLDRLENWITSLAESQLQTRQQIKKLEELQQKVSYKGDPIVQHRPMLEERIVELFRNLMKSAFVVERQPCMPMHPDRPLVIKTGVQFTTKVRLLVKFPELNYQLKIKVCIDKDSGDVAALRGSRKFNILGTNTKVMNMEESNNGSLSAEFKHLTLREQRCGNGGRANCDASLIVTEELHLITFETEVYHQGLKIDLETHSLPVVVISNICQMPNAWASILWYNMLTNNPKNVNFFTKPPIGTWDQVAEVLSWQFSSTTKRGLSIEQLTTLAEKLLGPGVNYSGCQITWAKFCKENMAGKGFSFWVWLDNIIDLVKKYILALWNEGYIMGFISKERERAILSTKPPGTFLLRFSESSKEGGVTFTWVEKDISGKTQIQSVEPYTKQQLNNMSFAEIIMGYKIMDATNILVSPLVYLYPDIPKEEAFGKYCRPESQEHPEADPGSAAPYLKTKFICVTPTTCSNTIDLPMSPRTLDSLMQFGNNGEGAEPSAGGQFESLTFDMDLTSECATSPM
Procedure: HEK-293/FLAG-Stat3/HA-Stat3 cells were cultured (4000 cells per well) with G418 400 ug/ml in 8 well chamber slide. The cells were treated with S3I-1757 or S3I-1756 for 1 hour, 2 hours, or 4 hours. The cells were then rinsed with phosphate buffered saline (PBS), fixed with ice-cold methanol for 15 minutes, washed 3 times in PBS, permeabilized with 0.2% Triton X-100 for 15 minutes, and further washed 3-4 times with PBS. Cells were then blocked in 1% bovine serum albumin (BSA) for 30 min and incubated with anti-HA (Santa Cruz, Santa Cruz, Calif., USA) or anti-FLAG (Sigma, St. Louis, Mo., USA) primary antibody at 1:100 dilution at 4° C. overnight. Subsequently, cells were rinsed 4-5 times in PBS, incubated with Alexa fluor secondary antibody (Invitrogen, Carlsbad, Calif., USA) for 1 hour at room temperature in the dark. Cells were then washed 5 times with PBS, covered with cover slides with […] mounting medium containing DAPI (Vector Lab, Inc., Burlingame, Calif.), and examined immediately under Zeiss Upright Fluorescence Microscope (Zeiss, Thornwood, N.Y., USA).
HASTAT3/FLAG-STAT3/HEK 293 cells were treated with vehicle, S3I-1757 or S3I-1756 and the cells were processed for immunofluorescence staining for FLAG-STAT3 and HA-STAT3 and analyzed by confocal microscopy.

[3] = test system: MDA-MB-468, MDA-MB-231, H358, A549 cells; experiment: MTT assay, cells with persistently activated STAT3; conditions: 48 hours
Procedure: MTT assay was performed exactly as described by Balasis, et al., Clin. Cancer Res. 2011; 17(9):2852-2862, to determine the effects of S3I-1757 on cell proliferation. Cells were plated in a 96 well tissue culture plate (2000 cells per well) and incubated for 12 hours. After incubation the cells were treated with vehicle S3I-1757 or S3I-1756 for 48 hours. After incubation, freshly prepared MTT (3 mg/ml) in 1×PBS was added to each well and incubated for 3 hours and the plate was read at 570 nm.
Several cell lines were used, some with persistently Y705 phosphorylated STAT3 and others without (FIG. 9A). […] The effects of S3I-1757 on cancer cell anchorage-independent growth were next determined by soft-agar assay.

[4] = test system: SRE promoter-renilla luciferase reporter (pLucSRE); experiment: luciferase reporter assay, SRE promoter; conditions: MDA-MB-468; 48 hours
Procedure: MDA-MB-468 cells were plated into 12-well plate with 4×10^5 cells per well. The cells were transiently transfected with pLucSRE, pLucTKS3 or STAT3-C with β-gal and then were treated with vehicle, S3I-1756 or S3I-1757 for 48 hours. Then cytosolic extracts of equal total protein were prepared from S3I-1757-treated or -untreated and analyzed for luciferase activity using a TD-20/20 luminometer (Turner Designs, Sunnyvale, Calif., USA) described by us previously.
To this end, MDA-MB-468 cells were transiently co-transfected with a STAT3-responsive promoter-firefly luciferase reporter (pLucTKS3) and 3-gal reporter used to normalize the transfection efficacy. To determine the selectivity of S3I-1757 to suppress STAT3-dependent over STAT3-independent transcriptional activation, MDA-MB-468 cells were also co-transfected with SRE promoter-renilla luciferase reporter (pLucSRE) and β-gal reporter. […] STAT3-C spontaneously dimerizes via disulfide bonds in the absence of tyrosine phosphorylation and is therefore not predicted to be inhibited by a small molecule that is designed to mimic phosphotyrosine binding.

MDA-MB-468 cells = experiment: anchorage independent growth by soft agar assay, MDA-MB-468; conditions: constitutively active STAT3
Procedure: Soft agar colony formation assays were performed in 12-well plate as described in Balasis, et al., Clin. Cancer. […] Colonies were allowed to grow for 3-4 weeks, and quantified by staining with 1 mg/mL MTT (Sigma, St. Louis, Mo., USA) overnight.

Chain of binding of FLAG-STAT3 to HA-STAT3 (P42227 whole entry): as above

What does the source list for `O=C(O)c1cc(N(Cc2ccc(C3CCCCC3)cc2)C(=O)c2ccc(Oc3ccccc3)cc2)ccc1O` [Compound 20g, 5-(N-(4-Cyclohexylbenzyl)-4-phenoxybenzamido)-2-hydroxybenzoic acid]?
binding of FLAG-STAT3 to HA-STAT3 (co-immunoprecipitation) [1]: inhibited the binding of FLAG-STAT3 to HA-STAT3 in a concentration-dependent manner; co-localization of FLAG-STAT3 and HA-STAT3 (yellow color) [2]: progressively less yellow color over time; anchorage-dependent proliferation by MTT, cells that harbor persistently activated STAT3 [3]: inhibited in a dose dependent manner; SRE-driven luciferase activity (STAT3-independent) [4]: minimal effect; anchorage independent growth (soft agar), MDA-MB-468 (MDA-MB-468 cells): significantly inhibited
